According to patent US20220071932A1, “Compositions and Methods Against Stress-Induced Affective Disorders and Their Associated Symptoms” (The Trustees of Columbia University in the City of New York, priority 2019, published 2022):

Key:
Type in all cases: in vivo
129S6/SvEv mice [1] = test: Contextual fear conditioning (CFC), 3-shock; freezing; settings: for p, Freezing (%), CFC Re-exposure 2, (R,S)-ketamine vs. FENM / p, Freezing (%), CFC Re-exposure 2, Saline vs. drug: drug 5 min after re-exposure 1; for p, Freezing (%), CFC Re-exposure 2, (R,S)-ketamine vs. FENM: (R,S)-ketamine 30 mg/kg vs. FENM 20 mg/kg
Protocol: A 3-shock CFC paradigm was administered as previously described (45, 46). CFC was conducted in chambers obtained from Med Associates (St. Albans, Vt.), with internal dimensions of approximately 20 cm wide×16 cm deep×20.5 cm high. The chambers had metal walls on each side, clear plastic front and back walls and ceilings, and stainless-steel bars on the floor. A house light (CM1820 bulb, 28v, 100 mA) mounted directly above the chamber provided illumination. Each chamber was located inside a larger, insulated, plastic cabinet that provided protection from outside light and noise. Each cabinet contained a ventilation fan that was operated during the sessions. A paper towel dabbed with lemon solution was placed underneath the chamber floor. Mice were held outside the experimental room in their home cages prior to testing and transported to the conditioning apparatus individually in standard mouse cages Chambers were cleaned with 70% EtOH between each set of mice. Mice were placed into the conditioning chamber and received shocks at 180 s, 240 s, and 300 s (2 s duration, 0.75 mA). Fifteen seconds after the last shock, mice were removed from the chamber. Overall, the training session lasted 317 s. […] All sessions were scored for freezing using FreezeFrame4.

129S6/SvEv mice [2] = test: Anxiety-like behavior, summary of anxiety tests (OF, MB, EPM)
Protocol: (§1) Testing was performed as previously described (47). Briefly, the maze is a plus-cross-shaped apparatus consisting of four arms, two open and two enclosed by walls, linked by a central platform at a height of 50 cm from the floor. Mice were individually placed in the center of the maze facing an open arm and were allowed to explore the maze for 5 min. The time spent in and the number of entries into the open arms was used as an anxiety index. Videos were scored using ANY-maze behavior tracking software (Stoelting, Wood Dale, Ill.).
The OF assay was administered as previously described (47). Briefly, motor activity was quantified in 4 Plexiglas open field boxes 43×43 cm^2 (MED Associates, Georgia, Vt.). Two sets of 16 pulse-modulated infrared photobeams on opposite walls 2.5-cm apart recorded x-y ambulatory movements. Activity chambers were computer interfaced for data sampling at 100-ms resolution. The computer defined grid lines that dividing center and surround regions, with the center square consisting of four lines 11 cm from the wall.
(§2) The MB assay was conducted in a clean cage (10.5 in×5.5 in) containing soft pliable Beta Chip bedding (Northeastern Products Corp, Warrensburg, N.Y.). The cage contained 16 marbles set up in 4 rows of 4 across. Mice were given 30 minutes to explore and bury. At the end of the assay, the percentage of marbles buried was calculated.

129S6/SvEv mice [3] = test: Elevated plus maze (EPM); settings: for distance travelled in the EPM / time spent in the open arms and center of the EPM: (R,S)-ketamine 30 mg/kg, FENM 10, 20 or 30 mg/kg
Protocol: as §1

129S6/SvEv mice [4] = test: Marble burying (MB); settings: for p, Fisher's PLSD Saline vs. drug, MB Marbles Buried (no.): drug 5 minutes after stress, FIG. 2K; for number of marbles buried: vs saline
Protocol: as §2

[5] = Extinction (5 min after re-exposure 1), dose 20 mg/kg
[6] = Saline vs. FENM (20 mg/kg), FIG. 8D
[7] = Saline vs. FENM (20 mg/kg), FIG. 8F
[8] = dose (20), drug 5 minutes after stress, FIG. 2C
[9] = 5 minutes after CFC, re-exposure 5 days after training, vs saline

## NC12CC3CC(C1)CC(CCF)(C3)C2 [FENM, 1-amino-3-fluoroethyl-adamantane]
129S6/SvEv mice [1]; (R,S)-ketamine (30 mg/kg) vs. FENM (20 mg/kg), after RMANOVA, FIG. 8F
  CFC Re-exposure 2, Freezing (%), p (Fisher's LSD): <0.0001
129S6/SvEv mice [1]; (R,S)-ketamine (30 mg/kg) vs. FENM (20 mg/kg), after RMANOVA, FIG. 8 cohort
  CFC Training, Freezing, p (Fisher's LSD): 0.0029
129S6/SvEv mice [1]; [5]
  Behavior: Fear: ↓
129S6/SvEv mice [1]; Fisher's LSD after ANOVA, FIG. 4G
  p, Freezing (%), CFC Re-exposure 2, (R,S)-ketamine vs. FENM: 0.0248
129S6/SvEv mice [1]; Fisher's LSD after ANOVA, FENM 20 mg/kg, (R,S)-ketamine 30 mg/kg, FIG. 4G
  p, Freezing (%), CFC Re-exposure 2, Saline vs. drug: 0.0281
129S6/SvEv mice [1]; Fisher's LSD after RMANOVA, FIG. 4F
  p, Freezing (%), CFC Re-exposure 2, (R,S)-ketamine vs. FENM: 0.0248
129S6/SvEv mice [1]; Fisher's LSD after RMANOVA, FENM 20 mg/kg, ketamine 30 mg/kg, FIG. 4F
  p, Freezing (%), CFC Re-exposure 2, Saline vs. drug: 0.0281
129S6/SvEv mice [1]; Fisher's LSD after RMANOVA, drug 5 min before CFC, (R,S)-ketamine 30 mg/kg, FENM dose lies beyond the rows shown, FIG. 8B
  p, Freezing (%), CFC Training, Saline vs. drug: 0.9251
129S6/SvEv mice [1]; Prophylactic (5 min before stress), dose 20 mg/kg
  Behavior: Fear: ↑
129S6/SvEv mice [1]; Prophylactic (7 days before stress), dose 20 mg/kg
  Behavior: Fear: ↓
129S6/SvEv mice [1]; Prophylactic (7 days before stress), dose 30 mg/kg
  Behavior: Fear: ↓
129S6/SvEv mice [1]; Saline vs. FENM (20 mg/kg), FIG. 8C
  CFC Training, Average Freezing, p (Fisher's LSD): 0.9251
129S6/SvEv mice [1]; [6]
  CFC Re-exposure 1, Freezing Min 1 (%), p (Fisher's LSD): 0.0008
  CFC Re-exposure 1, Freezing Min 2 (%), p (Fisher's LSD): 0.0075
  CFC Re-exposure 1, Freezing Min 3 (%), p (Fisher's LSD): 0.1384
  CFC Re-exposure 1, Freezing Min 4 (%), p (Fisher's LSD): 0.7601
  CFC Re-exposure 1, Freezing Min 5 (%), p (Fisher's LSD): 0.4751
129S6/SvEv mice [1]; [7]
  CFC Re-exposure 2, Freezing Min 1 (%), p (Fisher's LSD): 0.5432
  CFC Re-exposure 2, Freezing Min 2 (%), p (Fisher's LSD): 0.0173
  CFC Re-exposure 2, Freezing Min 3 (%), p (Fisher's LSD): 0.0053
  CFC Re-exposure 2, Freezing Min 4 (%), p (Fisher's LSD): 0.3068
  CFC Re-exposure 2, Freezing Min 5 (%), p (Fisher's LSD): 0.3729
129S6/SvEv mice [1]; Saline vs. FENM (20 mg/kg), after ANOVA, FIG. 8E
  CFC Re-exposure 1, Freezing (%), p (Fisher's LSD): 0.0665
129S6/SvEv mice [1]; Saline vs. FENM (20 mg/kg), after ANOVA, FIG. 8G
  CFC Re-exposure 2, Freezing (%), p (Fisher's LSD): 0.0173
129S6/SvEv mice [1]; Saline vs. FENM (20 mg/kg), after RMANOVA, FIG. 8D
  CFC Re-exposure 1, Freezing (%), p (Fisher's LSD): 0.0665
129S6/SvEv mice [1]; Saline vs. FENM (20 mg/kg), after RMANOVA, FIG. 8F
  CFC Re-exposure 2, Freezing (%), p (Fisher's LSD): 0.0173
129S6/SvEv mice [1]; [8]
  p, Fisher's PLSD Saline vs. drug, CFC Re-exposure Freezing Min 1 (%): 0.1072
  p, Fisher's PLSD Saline vs. drug, CFC Re-exposure Freezing Min 2 (%): 0.0080
  p, Fisher's PLSD Saline vs. drug, CFC Re-exposure Freezing Min 3 (%): 0.1619
  p, Fisher's PLSD Saline vs. drug, CFC Re-exposure Freezing Min 4 (%): 0.5390
  p, Fisher's PLSD Saline vs. drug, CFC Re-exposure Freezing Min 5 (%): 0.8801
129S6/SvEv mice [1]; dose (20), drug 5 minutes after stress, after RMANOVA, FIG. 2C
  p, Fisher's PLSD Saline vs. drug, CFC Re-exposure Freezing (%): 0.1188
129S6/SvEv mice [1]; one week prior to 3-shock CFC (c-fos / Western blot cohort), (R,S)-ketamine 30 mg/kg, FENM 20 mg/kg, vs saline
  behavior during CFC training: did not alter behavior
129S6/SvEv mice [1]; one week prior to 3-shock CFC, re-exposed five days later, (R,S)-ketamine 30 mg/kg, FENM 20 mg/kg, vs saline
  freezing upon re-exposure: significantly reduced freezing
129S6/SvEv mice [2]; 5 min after context re-exposure 1, (R,S)-ketamine 30 mg/kg, FENM 20 mg/kg, vs saline
  behavior in all anxiety tests, with the exception of the time spent in the center of the OF: did not alter behavior
129S6/SvEv mice [2]; 5 minutes prior to context re-exposure 1 (24 h after CFC), (R,S)-ketamine 30 mg/kg, FENM 20 mg/kg, vs saline
  behavior in all anxiety tests: did not alter behavior
129S6/SvEv mice [2]; Antidepressant (5 min after stress), dose 20 mg/kg
  Behavior: Anxiety-like: ↓
129S6/SvEv mice [2]; Antidepressant (5 min after stress), dose 30 mg/kg
  Behavior: Anxiety-like: ↓
129S6/SvEv mice [2]; [5]
  Behavior: Anxiety-like: ↓
129S6/SvEv mice [3]; 1 week prior to CFC, vs saline
  distance travelled in the EPM: did not alter
  time spent in the open arms and center of the EPM: did not alter
129S6/SvEv mice [3]; [9]
  distance travelled in the EPM: did not alter
  time spent in the open arms and center of the EPM: did not alter
129S6/SvEv mice [3]; non-stressed mice, FENM 20 mg/kg 1 hour before the start of the OF, vs saline
  time in the open arms, closed arms, and center of the EPM: comparable
129S6/SvEv mice [3]; t-test, Baseline, anxiety cohort, FENM 20 mg/kg, FIG. 7G
  p, Time in Open Arms (sec), EPM, Saline vs. FENM: 0.5729
129S6/SvEv mice [3]; t-test, Baseline, anxiety cohort, FENM 20 mg/kg, FIG. 7H
  p, Time in Closed Arms (sec), EPM, Saline vs. FENM: 0.5729
129S6/SvEv mice [3]; t-test, Baseline, anxiety cohort, FENM 20 mg/kg, FIG. 7I
  p, Time in Center (sec), EPM, Saline vs. FENM: 0.3211
129S6/SvEv mice [4]; 10 mg/kg
  p, Fisher's PLSD Saline vs. drug, MB Marbles Buried (no.): 0.0737
129S6/SvEv mice [4]; 30 mg/kg
  p, Fisher's PLSD Saline vs. drug, MB Marbles Buried (no.): 0.0097
129S6/SvEv mice [4]; 5 minutes after CFC, re-exposure 5 days after training, FENM 20 and 30 mg/kg, (R,S)-ketamine 30 mg/kg
  number of marbles buried: decreased the number of marbles buried
129S6/SvEv mice [4]; dose (20)
  p, Fisher's PLSD Saline vs. drug, MB Marbles Buried (no.): 0.0002
129S6/SvEv mice [4]; non-stressed mice, FENM 20 mg/kg 1 hour before the start of the OF
  number of marbles buried: did not affect
129S6/SvEv mice [4]; t-test, Baseline, anxiety cohort, FENM 20 mg/kg, FIG. 7F
  p, Marbles Buried (no.), MB, Saline vs. FENM: 0.4657
